# Assay results reported in patent US9255295B2, “Method for evaluating the sensitizing potential of a test compound” (IMMUNOSEARCH, priority 2010, dated 2016).
# Read-outs that look alike come from different tables or passages of the source.
# Test system: ARE gene family (AKR1B10, AKR1C1, AKR1C2, CYP1B1, FTH1P, FTL, G6PD, GCLM, NQO2, SLC7A11, TXNRD1, UGT1A1, UGT1A9, YWHAZ, CD36, CYP1A1, GCLC, HMOX1, NQO1, PSME2 …)
# Conditions: for AHR expression / AKR1B10 expression / AKR1C1 expression / AKR1C2 expression / CYP1A1 expression / CYP1B1 expression / FTH1P expression / FTL expression / GCLC expression / GCLM expression / HMOX1 expression / NQO1 expression / NQO2 expression / SLC7A11 expression / TXNRD1 expression / UGT1A1 expression / UGT1A9 expression: compared to the control
smiles,measurement,setting,value
CC=Cc1ccc(O)c(OC)c1 [Isoeugenol],AHR NUMBER OF GENES grade,0.1%,"0 (if this expression is lower, the grade is 0)"
same,AKR1B10 NUMBER OF GENES grade,0.1%,"0 (if this expression is lower, the grade is 0)"
same,AKR1C1 NUMBER OF GENES grade,0.1%,"0 (if this expression is lower, the grade is 0)"
same,AKR1C2 NUMBER OF GENES grade,0.1%,"0 (if this expression is lower, the grade is 0)"
same,ARE >1.3 (number of genes),0.1%,2
same,CD36 expression compared to control,0.1%,0.9
same,CD36 grade (NUMBER OF GENES),0.1%,"0 (if this expression is lower, the grade is 0)"
same,CYP1A1 NUMBER OF GENES grade,0.1%,"1 (If the expression is greater than 1.3 compared to the control, a grade of 11s given)"
same,CYP1B1 NUMBER OF GENES grade,0.1%,"1 (If the expression is greater than 1.3 compared to the control, a grade of 11s given)"
same,FTH1P NUMBER OF GENES grade,0.1%,"0 (if this expression is lower, the grade is 0)"
same,FTL NUMBER OF GENES grade,0.1%,"0 (if this expression is lower, the grade is 0)"
same,GCLC NUMBER OF GENES grade,0.1%,"0 (if this expression is lower, the grade is 0)"
same,GCLM NUMBER OF GENES grade,0.1%,"0 (if this expression is lower, the grade is 0)"
same,HMOX1 NUMBER OF GENES grade,0.1%,"0 (if this expression is lower, the grade is 0)"
same,NQO1 NUMBER OF GENES grade,0.1%,"0 (if this expression is lower, the grade is 0)"
same,NQO2 NUMBER OF GENES grade,0.1%,"0 (if this expression is lower, the grade is 0)"
same,S100A8 expression compared to control,0.1%,1.1
same,S100A8 grade (NUMBER OF GENES),0.1%,"0 (if this expression is lower, the grade is 0)"
same,SLC7A11 NUMBER OF GENES grade,0.1%,"0 (if this expression is lower, the grade is 0)"
same,TOTAL ARE (number of genes),0.1%,2
same,TXNRD1 NUMBER OF GENES grade,0.1%,"0 (if this expression is lower, the grade is 0)"
same,UGT1A1 NUMBER OF GENES grade,0.1%,"0 (if this expression is lower, the grade is 0)"
same,UGT1A9 NUMBER OF GENES grade,0.1%,"0 (if this expression is lower, the grade is 0)"
same,AHR expression,0.1%,0.7
same,AKR1B10 expression,0.1%,0.9
same,AKR1C1 expression,0.1%,1.1
same,AKR1C2 expression,0.1%,1.0
same,CYP1A1 expression,0.1%,11.9
same,CYP1B1 expression,0.1%,12.2
same,FTH1P expression,0.1%,0.8
same,FTL expression,0.1%,1.0
same,GCLC expression,0.1%,0.8
same,GCLM expression,0.1%,1.1
same,HMOX1 expression,0.1%,0.9
same,NQO1 expression,0.1%,1.1
same,NQO2 expression,0.1%,1.0
same,SLC7A11 expression,0.1%,1.1
same,TXNRD1 expression,0.1%,1.1
same,UGT1A1 expression,0.1%,1.0
same,UGT1A9 expression,0.1%,0.8
same,AHR NUMBER OF GENES grade,1%,"0 (if this expression is lower, the grade is 0)"
same,AKR1B10 NUMBER OF GENES grade,1%,"0 (if this expression is lower, the grade is 0)"
same,AKR1C1 NUMBER OF GENES grade,1%,"0 (if this expression is lower, the grade is 0)"
same,AKR1C2 NUMBER OF GENES grade,1%,"0 (if this expression is lower, the grade is 0)"
same,ARE >1.3 (number of genes),1%,3
same,CD36 expression compared to control,1%,1.3
same,CD36 grade (NUMBER OF GENES),1%,"1 (If the expression is greater than 1.3 compared to the control, a grade of 11s given)"
same,CYP1A1 NUMBER OF GENES grade,1%,"1 (If the expression is greater than 1.3 compared to the control, a grade of 11s given)"
same,CYP1B1 NUMBER OF GENES grade,1%,"1 (If the expression is greater than 1.3 compared to the control, a grade of 11s given)"
same,FTH1P NUMBER OF GENES grade,1%,"0 (if this expression is lower, the grade is 0)"
same,FTL NUMBER OF GENES grade,1%,"0 (if this expression is lower, the grade is 0)"
same,GCLC NUMBER OF GENES grade,1%,"0 (if this expression is lower, the grade is 0)"
same,GCLM NUMBER OF GENES grade,1%,"0 (if this expression is lower, the grade is 0)"
same,HMOX1 NUMBER OF GENES grade,1%,"0 (if this expression is lower, the grade is 0)"
same,NQO1 NUMBER OF GENES grade,1%,"0 (if this expression is lower, the grade is 0)"
same,NQO2 NUMBER OF GENES grade,1%,"0 (if this expression is lower, the grade is 0)"
same,S100A8 expression compared to control,1%,1.0
same,S100A8 grade (NUMBER OF GENES),1%,"0 (if this expression is lower, the grade is 0)"
same,SLC7A11 NUMBER OF GENES grade,1%,"0 (if this expression is lower, the grade is 0)"
same,TOTAL ARE (number of genes),1%,3
same,TXNRD1 NUMBER OF GENES grade,1%,"1 (If the expression is greater than 1.3 compared to the control, a grade of 11s given)"
same,UGT1A1 NUMBER OF GENES grade,1%,"0 (if this expression is lower, the grade is 0)"
same,UGT1A9 NUMBER OF GENES grade,1%,"0 (if this expression is lower, the grade is 0)"
same,AHR expression,1%,0.9
same,AKR1B10 expression,1%,0.7
same,AKR1C1 expression,1%,1.2
same,AKR1C2 expression,1%,0.9
same,CYP1A1 expression,1%,219.2
same,CYP1B1 expression,1%,25.3
same,FTH1P expression,1%,0.9
same,FTL expression,1%,1.0
same,GCLC expression,1%,0.9
same,GCLM expression,1%,1.2
same,HMOX1 expression,1%,1.2
same,NQO1 expression,1%,1.0
same,NQO2 expression,1%,1.0
same,SLC7A11 expression,1%,1.1
same,TXNRD1 expression,1%,1.3
same,UGT1A1 expression,1%,1.1
same,UGT1A9 expression,1%,1.0
same,AHR NUMBER OF GENES grade,10%,"0 (if this expression is lower, the grade is 0)"
same,AKR1B10 NUMBER OF GENES grade,10%,"0 (if this expression is lower, the grade is 0)"
same,AKR1C1 NUMBER OF GENES grade,10%,"0 (if this expression is lower, the grade is 0)"
same,AKR1C2 NUMBER OF GENES grade,10%,"0 (if this expression is lower, the grade is 0)"
same,ARE >1.3 (number of genes),10%,5
same,CD36 expression compared to control,10%,0.6
same,CD36 grade (NUMBER OF GENES),10%,"0 (if this expression is lower, the grade is 0)"
same,CYP1A1 NUMBER OF GENES grade,10%,"1 (If the expression is greater than 1.3 compared to the control, a grade of 11s given)"
same,CYP1B1 NUMBER OF GENES grade,10%,"1 (If the expression is greater than 1.3 compared to the control, a grade of 11s given)"
same,FTH1P NUMBER OF GENES grade,10%,"0 (if this expression is lower, the grade is 0)"
same,FTL NUMBER OF GENES grade,10%,"0 (if this expression is lower, the grade is 0)"
same,GCLC NUMBER OF GENES grade,10%,"0 (if this expression is lower, the grade is 0)"
same,GCLM NUMBER OF GENES grade,10%,"1 (If the expression is greater than 1.3 compared to the control, a grade of 11s given)"
same,HMOX1 NUMBER OF GENES grade,10%,"0 (if this expression is lower, the grade is 0)"
same,NQO1 NUMBER OF GENES grade,10%,"0 (if this expression is lower, the grade is 0)"
same,NQO2 NUMBER OF GENES grade,10%,"0 (if this expression is lower, the grade is 0)"
same,S100A8 expression compared to control,10%,1.3
same,S100A8 grade (NUMBER OF GENES),10%,"1 (If the expression is greater than 1.3 compared to the control, a grade of 11s given)"
same,SLC7A11 NUMBER OF GENES grade,10%,"0 (if this expression is lower, the grade is 0)"
same,TOTAL ARE (number of genes),10%,5
same,TXNRD1 NUMBER OF GENES grade,10%,"1 (If the expression is greater than 1.3 compared to the control, a grade of 11s given)"
same,UGT1A1 NUMBER OF GENES grade,10%,"0 (if this expression is lower, the grade is 0)"
same,UGT1A9 NUMBER OF GENES grade,10%,"1 (If the expression is greater than 1.3 compared to the control, a grade of 11s given)"
same,AHR expression,10%,0.9
same,AKR1B10 expression,10%,0.5
same,AKR1C1 expression,10%,1.1
same,AKR1C2 expression,10%,0.7
same,CYP1A1 expression,10%,510.5
same,CYP1B1 expression,10%,39.8
same,FTH1P expression,10%,0.9
same,FTL expression,10%,0.9
same,GCLC expression,10%,0.8
same,GCLM expression,10%,1.5
same,HMOX1 expression,10%,1.2
same,NQO1 expression,10%,1.0
same,NQO2 expression,10%,0.9
same,SLC7A11 expression,10%,1.1
same,TXNRD1 expression,10%,1.5
same,UGT1A1 expression,10%,1.2
same,UGT1A9 expression,10%,1.6
same,AHR NUMBER OF GENES grade,50%,"0 (if this expression is lower, the grade is 0)"
same,AKR1B10 NUMBER OF GENES grade,50%,"0 (if this expression is lower, the grade is 0)"
same,AKR1C1 NUMBER OF GENES grade,50%,"1 (If the expression is greater than 1.3 compared to the control, a grade of 11s given)"
same,AKR1C2 NUMBER OF GENES grade,50%,"1 (If the expression is greater than 1.3 compared to the control, a grade of 11s given)"
same,ARE >1.3 (number of genes),50%,11
same,CD36 expression compared to control,50%,0.6
same,CD36 grade (NUMBER OF GENES),50%,"0 (if this expression is lower, the grade is 0)"
same,CYP1A1 NUMBER OF GENES grade,50%,"1 (If the expression is greater than 1.3 compared to the control, a grade of 11s given)"
same,CYP1B1 NUMBER OF GENES grade,50%,"1 (If the expression is greater than 1.3 compared to the control, a grade of 11s given)"
same,FTH1P NUMBER OF GENES grade,50%,"0 (if this expression is lower, the grade is 0)"
same,FTL NUMBER OF GENES grade,50%,"1 (If the expression is greater than 1.3 compared to the control, a grade of 11s given)"
same,GCLC NUMBER OF GENES grade,50%,"1 (If the expression is greater than 1.3 compared to the control, a grade of 11s given)"
same,GCLM NUMBER OF GENES grade,50%,"1 (If the expression is greater than 1.3 compared to the control, a grade of 11s given)"
same,HMOX1 NUMBER OF GENES grade,50%,"1 (If the expression is greater than 1.3 compared to the control, a grade of 11s given)"
same,NQO1 NUMBER OF GENES grade,50%,"1 (If the expression is greater than 1.3 compared to the control, a grade of 11s given)"
same,NQO2 NUMBER OF GENES grade,50%,"0 (if this expression is lower, the grade is 0)"
same,S100A8 expression compared to control,50%,1.5
same,S100A8 grade (NUMBER OF GENES),50%,"1 (If the expression is greater than 1.3 compared to the control, a grade of 11s given)"
same,SLC7A11 NUMBER OF GENES grade,50%,"1 (If the expression is greater than 1.3 compared to the control, a grade of 11s given)"
same,TOTAL ARE (number of genes),50%,11
same,TXNRD1 NUMBER OF GENES grade,50%,"1 (If the expression is greater than 1.3 compared to the control, a grade of 11s given)"
same,UGT1A1 NUMBER OF GENES grade,50%,"0 (if this expression is lower, the grade is 0)"
same,UGT1A9 NUMBER OF GENES grade,50%,"0 (if this expression is lower, the grade is 0)"
same,AHR expression,50%,1.0
same,AKR1B10 expression,50%,1.0
same,AKR1C1 expression,50%,2.2
same,AKR1C2 expression,50%,1.3
same,CYP1A1 expression,50%,87.1
same,CYP1B1 expression,50%,39.1
same,FTH1P expression,50%,1.0
same,FTL expression,50%,1.5
same,GCLC expression,50%,1.3
same,GCLM expression,50%,2.0
same,HMOX1 expression,50%,1.4
same,NQO1 expression,50%,1.8
same,NQO2 expression,50%,1.1
same,SLC7A11 expression,50%,2.2
same,TXNRD1 expression,50%,2.6
same,UGT1A1 expression,50%,1.2
same,UGT1A9 expression,50%,1.2
